Where a SMILES comes first, the peptide text is derived from it.
Experiments:
Assay in all cases: Phosphatase assay with ENDY(P)INASL as substrate
Type in all cases: biochemical
RPTPα = molecular target: T1, RPTPα (Homo sapiens, UniProt P18433)
T1 construct: made in house; host or cells: Sf9 cells (baculovirus)
Protocol: (§1) The tyrosine phosphatases TC.PTP, TCΔC11.PTP, and RPTPα were purified from infected Sf9 cells as described recently (Zander et al., Biochemistry 30: 6964-6970, 1991; Daum et al., J. Biol. Chem. 266: 12211-12215, 1991). The 37 kDa form of PTP1B and CD45 were purified from placenta and spleen, respectively (according to Tonks et al., J. Biol. Chem. 263: 6722-6730, 1988; Tonks et al., Biochemistry 27: 8695-8701, 1988).
(§2) Phosphatase assays with ENDY(P)INASL were performed in buffer M6. Aliquots of 30 μl or 60 μl containing the phosphopeptide, the phosphatase (-beads) and effectors were incubated for 10 minutes at 30° C. The reaction was stopped by adding 200 μl of a suspension of 10% activated, acid-washed Norit A charcoal (v/v) in 0.9N HCl, 0.1M pyrophosphate and 2 mM NaH2 PO4 (according to Streuli et al., Proc. Natl. Acad. Sci. USA 86: 8698-8702, 1989). The mixture was cleared by 10-minute centrifugation and the radioactivity of 150 μl of the supernate was determined. Assays with MBP and RCML were performed as described in Tonks et al., J. Biol. Chem. 263: 6722-6730, 1988. Protein concentration was determined with BSA as standard (Bradford, Anal. Biochem. 72: 248-254, 1976).

TCΔC11.PTP = molecular target: T2, TCΔC11.PTP (Homo sapiens, UniProt P17706)
T2 construct: both the wild type and truncated forms of the T-cell phosphatase; made in house; host or cells: Sf9 cells (baculovirus)
T2 sequence (P17706 1-317 limits assumed): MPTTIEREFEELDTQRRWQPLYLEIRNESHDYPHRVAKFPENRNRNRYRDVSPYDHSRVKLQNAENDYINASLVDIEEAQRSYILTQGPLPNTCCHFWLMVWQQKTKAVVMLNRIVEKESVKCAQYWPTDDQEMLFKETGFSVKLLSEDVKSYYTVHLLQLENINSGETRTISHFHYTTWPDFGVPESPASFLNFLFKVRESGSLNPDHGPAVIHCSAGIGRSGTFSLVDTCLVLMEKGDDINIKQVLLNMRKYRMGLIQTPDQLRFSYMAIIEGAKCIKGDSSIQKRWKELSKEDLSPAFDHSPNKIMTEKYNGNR
Protocol: as §1, §2

CD45 = molecular target: T3, CD45 (Homo sapiens, UniProt P08575)
T3 construct: CD45 were purified from placenta and spleen, respectively; from tissue; host or cells: spleen
T3 sequence (P08575 26-1306): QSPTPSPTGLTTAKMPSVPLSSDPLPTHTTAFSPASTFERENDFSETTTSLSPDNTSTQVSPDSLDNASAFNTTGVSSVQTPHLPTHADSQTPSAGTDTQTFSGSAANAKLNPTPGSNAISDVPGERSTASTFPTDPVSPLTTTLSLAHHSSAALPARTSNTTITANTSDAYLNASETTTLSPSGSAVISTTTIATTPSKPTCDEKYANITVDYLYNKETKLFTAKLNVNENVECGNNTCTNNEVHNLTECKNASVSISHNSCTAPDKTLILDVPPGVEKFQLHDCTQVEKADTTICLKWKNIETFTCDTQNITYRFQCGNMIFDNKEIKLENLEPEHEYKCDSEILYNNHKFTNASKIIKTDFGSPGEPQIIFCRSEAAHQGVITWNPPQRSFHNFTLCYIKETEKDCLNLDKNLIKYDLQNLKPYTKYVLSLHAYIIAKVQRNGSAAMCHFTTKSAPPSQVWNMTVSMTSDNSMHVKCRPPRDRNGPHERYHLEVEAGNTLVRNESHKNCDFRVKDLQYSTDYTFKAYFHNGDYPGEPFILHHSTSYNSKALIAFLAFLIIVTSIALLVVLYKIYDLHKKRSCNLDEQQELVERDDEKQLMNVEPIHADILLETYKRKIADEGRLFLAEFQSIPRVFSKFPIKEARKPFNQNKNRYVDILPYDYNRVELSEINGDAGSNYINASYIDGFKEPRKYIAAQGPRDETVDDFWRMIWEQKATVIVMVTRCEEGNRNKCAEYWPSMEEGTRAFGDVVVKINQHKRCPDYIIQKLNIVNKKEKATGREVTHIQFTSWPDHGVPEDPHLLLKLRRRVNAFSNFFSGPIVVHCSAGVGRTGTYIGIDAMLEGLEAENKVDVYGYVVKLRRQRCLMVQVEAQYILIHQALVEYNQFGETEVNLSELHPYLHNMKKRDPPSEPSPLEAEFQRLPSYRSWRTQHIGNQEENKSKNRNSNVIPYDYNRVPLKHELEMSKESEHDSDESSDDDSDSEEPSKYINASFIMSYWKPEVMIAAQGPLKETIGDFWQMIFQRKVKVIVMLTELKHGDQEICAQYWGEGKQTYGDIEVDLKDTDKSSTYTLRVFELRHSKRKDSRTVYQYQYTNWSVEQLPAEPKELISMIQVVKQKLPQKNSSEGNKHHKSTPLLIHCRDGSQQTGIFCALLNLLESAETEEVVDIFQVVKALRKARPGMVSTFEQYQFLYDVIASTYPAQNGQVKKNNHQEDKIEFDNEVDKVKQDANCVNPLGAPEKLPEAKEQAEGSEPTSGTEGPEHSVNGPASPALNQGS
Protocol: as §1, §2

TC.PTP = molecular target: T4, TC.PTP (Homo sapiens, UniProt P17706); conditions: TC.PTP
T4 construct: made in house; host or cells: Sf9 cells (baculovirus)
T4 sequence (P17706 1-415): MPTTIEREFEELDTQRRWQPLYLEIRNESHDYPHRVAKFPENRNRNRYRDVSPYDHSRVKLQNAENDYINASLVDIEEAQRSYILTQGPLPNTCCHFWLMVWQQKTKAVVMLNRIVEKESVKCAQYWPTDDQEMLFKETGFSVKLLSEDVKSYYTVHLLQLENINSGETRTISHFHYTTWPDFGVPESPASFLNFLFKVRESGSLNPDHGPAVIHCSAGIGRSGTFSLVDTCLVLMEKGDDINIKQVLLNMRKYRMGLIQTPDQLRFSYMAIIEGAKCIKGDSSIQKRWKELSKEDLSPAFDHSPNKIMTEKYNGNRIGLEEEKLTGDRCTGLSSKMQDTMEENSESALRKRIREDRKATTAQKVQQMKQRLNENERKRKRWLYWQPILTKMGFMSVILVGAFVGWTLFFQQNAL
Protocol: as §1, §2

PTP1B = molecular target: T5, PTP1B (Homo sapiens, UniProt P18031)
T5 construct: The 37 kDa form of PTP1B; from tissue; host or cells: placenta
T5 sequence (P18031 1-321 limits assumed): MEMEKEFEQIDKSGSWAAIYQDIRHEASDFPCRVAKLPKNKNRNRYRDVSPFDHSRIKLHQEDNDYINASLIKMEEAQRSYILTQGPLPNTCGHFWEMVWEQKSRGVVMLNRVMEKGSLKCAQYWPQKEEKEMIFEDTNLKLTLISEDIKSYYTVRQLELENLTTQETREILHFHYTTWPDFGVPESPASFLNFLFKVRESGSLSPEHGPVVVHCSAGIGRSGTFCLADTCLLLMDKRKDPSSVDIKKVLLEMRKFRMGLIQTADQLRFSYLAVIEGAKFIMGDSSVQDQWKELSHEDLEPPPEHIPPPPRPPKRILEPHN
Protocol: as §1, §2

T1 sequence (P18433 20-802): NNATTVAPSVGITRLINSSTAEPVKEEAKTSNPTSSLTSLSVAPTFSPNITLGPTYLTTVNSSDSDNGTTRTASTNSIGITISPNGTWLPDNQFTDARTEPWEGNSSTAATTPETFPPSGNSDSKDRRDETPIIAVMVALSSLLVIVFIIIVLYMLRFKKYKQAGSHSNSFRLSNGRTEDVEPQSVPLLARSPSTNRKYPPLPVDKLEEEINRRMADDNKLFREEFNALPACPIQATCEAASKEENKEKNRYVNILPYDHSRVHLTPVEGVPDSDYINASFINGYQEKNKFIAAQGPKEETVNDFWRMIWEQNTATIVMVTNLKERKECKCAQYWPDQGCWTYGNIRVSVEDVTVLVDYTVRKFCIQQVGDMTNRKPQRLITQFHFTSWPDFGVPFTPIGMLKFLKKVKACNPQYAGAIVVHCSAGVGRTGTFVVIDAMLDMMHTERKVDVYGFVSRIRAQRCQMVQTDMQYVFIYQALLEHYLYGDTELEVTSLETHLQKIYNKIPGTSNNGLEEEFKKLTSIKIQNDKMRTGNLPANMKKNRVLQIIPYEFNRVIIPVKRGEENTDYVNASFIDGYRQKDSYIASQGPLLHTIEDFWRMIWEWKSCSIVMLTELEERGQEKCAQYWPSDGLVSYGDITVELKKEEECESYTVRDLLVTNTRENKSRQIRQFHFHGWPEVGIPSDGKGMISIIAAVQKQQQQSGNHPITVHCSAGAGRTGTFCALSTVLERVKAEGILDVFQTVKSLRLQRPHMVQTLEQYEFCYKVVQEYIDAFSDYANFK

SMILES | Phosphatase activity in percent of the value obtained in the absence of effectors (RPTPα; effector 1.0 mM) [%] | Phosphatase activity in percent of the value obtained in the absence of effectors (RPTPα; effector 3.0 mM) [%] | Phosphatase activity in percent of the value obtained in the absence of effectors (RPTPα; effector 5.0 mM) [%] | Phosphatase activity in percent of the value obtained in the absence of effectors (TCΔC11.PTP; effector 1.0 mM) [%] | Phosphatase activity in percent of the value obtained in the absence of effectors (TCΔC11.PTP; effector 3.0 mM) [%] | Phosphatase activity in percent of the value obtained in the absence of effectors (TCΔC11.PTP; effector 5.0 mM) [%] | Phosphatase activity in percent of the value obtained in the absence of effectors (CD45; effector 1.0 mM) [%] | Phosphatase activity in percent of the value obtained in the absence of effectors (CD45; effector 3.0 mM) [%] | Phosphatase activity in percent of the value obtained in the absence of effectors (CD45; effector 5.0 mM) [%] | Phosphatase activity in percent of the value obtained in the absence of effectors (TC.PTP; effector 1.0 mM) [%] | Phosphatase activity in percent of the value obtained in the absence of effectors (TC.PTP; effector 3.0 mM) [%] | Phosphatase activity in percent of the value obtained in the absence of effectors (TC.PTP; effector 5.0 mM) [%] | Phosphatase activity in percent of the value obtained in the absence of effectors (PTP1B; effector 1.0 mM) [%] | Phosphatase activity in percent of the value obtained in the absence of effectors (PTP1B; effector 3.0 mM) [%] | Phosphatase activity in percent of the value obtained in the absence of effectors (PTP1B; effector 5.0 mM) [%] | further results
CC[C@H](C)[C@H](NC(=O)[C@H](Cc1ccc(O)cc1)NC(=O)[C@H](CC(=O)O)NC(=O)[C@H](CC(N)=O)NC(=O)[C@@H](N)CCC(=O)O)C(=O)N[C@@H](CC(N)=O)C(=O)N[C@@H](C)C(=O)N[C@@H](CO)C(=O)N[C@@H](CC(C)C)C(=O)O (H-ENDYINASL-OH) | – | – | – | – | – | – | – | – | – | – | – | – | – | – | – | Phosphatase activity in percent of the value obtained in the absence of effectors (RPTPα; effector 60 μM): 76%; Phosphatase activity in percent of the value obtained in the absence of effectors (RPTPα; effector 110 μM): 54%; Phosphatase activity in percent of the value obtained in the absence of effectors (RPTPα; effector 210 μM): 30%; Phosphatase activity in percent of the value obtained in the absence of effectors (TCΔC11.PTP; effector 60 μM): 71%; Phosphatase activity in percent of the value obtained in the absence of effectors (TCΔC11.PTP; effector 110 μM): 55%; Phosphatase activity in percent of the value obtained in the absence of effectors (TCΔC11.PTP; effector 210 μM): 46%; Phosphatase activity in percent of the value obtained in the absence of effectors (CD45; effector 60 μM): 99%; Phosphatase activity in percent of the value obtained in the absence of effectors (CD45; effector 110 μM): 92%; Phosphatase activity in percent of the value obtained in the absence of effectors (CD45; effector 210 μM): 83%; Phosphatase activity in percent of the value obtained in the absence of effectors (TC.PTP; effector 60 μM): 92%; Phosphatase activity in percent of the value obtained in the absence of effectors (TC.PTP; effector 110 μM): 89%; Phosphatase activity in percent of the value obtained in the absence of effectors (TC.PTP; effector 210 μM): 79%; Phosphatase activity in percent of the value obtained in the absence of effectors (PTP1B; effector 60 μM): 94%; Phosphatase activity in percent of the value obtained in the absence of effectors (PTP1B; effector 110 μM): 84%; Phosphatase activity in percent of the value obtained in the absence of effectors (PTP1B; effector 210 μM): 58%
[Mn+2] [Mn^2+] | 60 | 38 | 21 | 34 | 22 | 15 | 78 | 56 | 44 | 49 | 30 | 21 | 26 | 23 | 20 | –
O=C(O)CN(CCN(CC(=O)O)CC(=O)O)CC(=O)O [EDTA] | 115 | 97 | 86 | 142 | 109 | 93 | 96 | 78 | 76 | 119 | 104 | 80 | 139 | 125 | 110 | –
[O]=[V]([O-])([O-])[O-] [vanadate] | – | – | – | – | – | – | – | – | – | – | – | – | – | – | – | Phosphatase activity in percent of the value obtained in the absence of effectors (RPTPα; effector 1.0 μM): 62%; Phosphatase activity in percent of the value obtained in the absence of effectors (RPTPα; effector 10 μM): 4%; Phosphatase activity in percent of the value obtained in the absence of effectors (RPTPα; effector 100 μM): 0%; Phosphatase activity in percent of the value obtained in the absence of effectors (CD45; effector 1.0 μM): 66%; Phosphatase activity in percent of the value obtained in the absence of effectors (CD45; effector 10 μM): 17%; Phosphatase activity in percent of the value obtained in the absence of effectors (CD45; effector 100 μM): 4%
[Mg+2] [Mg^2+] | 90 | 72 | 59 | 75 | 60 | 58 | 80 | 62 | 72 | 72 | 57 | 60 | 81 | 73 | 71 | –
